These results are taken from the METLIN SMRT retention time set (Domingo-Almenara et al. 2019).

Molecules are shown by their SMILES.

The nature of this data set: gradient 5% acetonitrile 3 min, to 50% in 2 min, to 85% in 15 min, held 3 min, 100 µL/min. To be noted: column: Zorbax Extend-C18 2.1 x 50 mm; eluents: water / acetonitrile, 0.1% formic acid. The gist of the method: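 The mobile phases were water and acetonitrile, each with 0.1% formic acid, pumped at 100 μL/min through a Zorbax Extend-C18 column (2.1 × 50 mm, 1.8 μm). Pure standards were injected as mixtures of ~100 molecules and detected by a quadrupole time-of-flight mass spectrometer in positive and negative ionization mode. Retention time came from computationally picked adduct peaks, each inspected by hand.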
The compound `COc1ccc(Cl)cc1C(=O)NCCc1c[nH]c2ccc(C)cc12` registered an RP-LC retention time of 657 s.

With `O=C(CN1C(=O)COc2ccc(C(=O)N3CCCCC3)cc21)NC1CCCCCCC1`, the RP-LC retention time was 844 s.

`CN(C)c1cccc(-c2nc(C3CC(=O)N(c4ccc(F)cc4)C3)no2)c1` (centres undefined) had an RP-LC retention time of 1030 s.

The compound `COc1cccc(CNC(=O)C2CCCN2S(=O)(=O)c2cc3c(cc2C)NC(=O)CO3)c1` (centres undefined) came in with an RP-LC retention time of 721 s.

As to `CCOc1ccc(C(O)Cn2ccn3nc(-c4ccccc4C)cc3c2=O)cc1` (centres undefined), the RP-LC retention time is 985 s.

`COc1ccc(-n2c(=O)n(C)c(=O)c3cc(C(=O)NCc4ccccc4F)cnc32)cc1` returned an RP-LC retention time of 849 s.

Compound `COC(=O)Nc1ccc(S(=O)(=O)Nc2nc(C)cc(C)n2)cc1` returned an RP-LC retention time of 599 s.

As for `Cc1oc2ncnc(N3CCCC(C(=O)N4CCN(C5CCCCC5)CC4)C3)c2c1C` (centres undefined), the RP-LC retention time worked out at 1230 s.

For the compound `Cc1ccccc1NC(=O)Cn1nc(N2CCOCC2)c2ccccc2c1=O`, the RP-LC retention time came to 774 s.

Compound `CC(C)NC(=O)c1nsc(C(=O)N2CCN(c3ncccn3)CC2)c1N` had an RP-LC retention time of 764 s.

Turning to `COc1ccc(CCNC(=O)C2CCN(C(=O)C3Sc4ccccc4NC3=O)CC2)cc1OC` (centres undefined), the RP-LC retention time turned out to be 694 s.

With `O=C(C1CCN(c2cnn(Cc3ccccc3)c(=O)c2)CC1)N1CCCCCC1`, the RP-LC retention time came to 774 s.

Regarding `COc1ccc(NC(=O)NCCCn2c(C(F)(F)F)nc3cccnc32)c(OC)c1`, the RP-LC retention time came out at 708 s.

`Cc1ccc(N2CCN(C(=O)C3=CCN(Cc4cccc(C)c4)CC3)CC2)cc1` showed an RP-LC retention time of 697 s.

Turning to `CCCN1CCN(c2ccc(-c3nc(-c4ccc(C)cc4)no3)cn2)CC1`, the RP-LC retention time stood at 750 s.

Compound `COc1ccc(-c2noc(Cn3ccn(-c4ccccc4OC)c(=O)c3=O)n2)cc1` came in with an RP-LC retention time of 623 s.

Compound `Cc1ccc(NC(=O)NCC(c2cccnc2)c2c[nH]c3ccccc23)cc1F` (centres undefined) gave an RP-LC retention time of 693 s.

Take `Cc1ccc(NC(=O)NCCn2c(-c3ccncc3)nc3cccnc32)cc1Cl`: the RP-LC retention time amounted to 666 s.

In the case of `CNC(=O)c1ccccc1Nc1nc(Nc2ccc(N3CCOCC3)cc2OC)ncc1Cl`, the RP-LC retention time stood at 722 s.

Consider `COc1ccc(-c2cc3c(=O)n(Cc4noc(CN(C)C5CCCCC5)n4)ccn3n2)cc1`, for which the RP-LC retention time came to 671 s.

`COC(=O)c1cccc(NC(=O)c2c(O)c3cccnc3n(-c3ccc(F)cc3)c2=O)c1` registered an RP-LC retention time of 1190 s.

For the compound `Cc1ccc2c(C)nc(NC3=NCN(Cc4ccccc4)CN3)nc2c1`, the RP-LC retention time was determined as 772 s.

With `Cc1ccccc1C(C(=O)NC1CCCCC1)N(C(=O)Cn1ccnc1C)c1cccc(F)c1` (centres undefined), the RP-LC retention time is 895 s.

`CCCNC(=O)CCc1nc2ccccc2n(CC(=O)NCc2ccccc2Cl)c1=O`: the RP-LC retention time turned out to be 794 s.

`Cc1ccc(S(=O)(=O)N2CCC(C)CC2)cc1-c1nnc(-c2ccc(F)cc2)o1` gave an RP-LC retention time of 1220 s.

`CC1CCN(C(=O)C2=CN(c3cccc(F)c3)c3ccccc3S2(=O)=O)CC1` registered an RP-LC retention time of 908 s.

On to `O=C(NCC1CCOCC1)Nc1cc(F)cc(F)c1`, for which the RP-LC retention time stood at 703 s.

For `Cc1ccc(NC(=O)Cn2nc(C(=O)N3CCCC3)c3ccccc32)cc1Cl`, the RP-LC retention time turned out to be 950 s.

In the case of `CS(=O)(=O)c1ccc(Nc2ncccc2S(N)(=O)=O)cc1`, the RP-LC retention time is 668 s.

Take `N#Cc1ccc(C(=O)N2CCCC(COc3ccc(C(=O)NC4CC4)cc3)C2)cc1` (centres undefined): the RP-LC retention time is 757 s.

Compound `Cc1ccc(C2=NN3C(C2)c2ccccc2OC32CCCC2)o1` (centres undefined) registered an RP-LC retention time of 942 s.

The compound `CCc1cccc(NC(=O)COc2cc(C)nc(N3CCN(c4ccccc4)CC3)n2)c1` yielded an RP-LC retention time of 922 s.

Take `COC(=O)c1c(-c2cccc(F)c2)noc1NCc1ccc(OC)cc1OC`: the RP-LC retention time is 548 s.

On to `CSc1ccc(-c2noc(-c3nn(-c4cccc(Br)c4)ccc3=O)n2)cc1`, for which the RP-LC retention time was 988 s.

As to `COCCN1C(=O)CCc2cc(NC(=O)C(C)(C)C)ccc21`, the RP-LC retention time came out at 707 s.

Compound `Cc1cnc(C2CN(S(=O)(=O)c3cccc(F)c3)C2)n1CC1CC1` yielded an RP-LC retention time of 656 s.

`O=C1Nc2ccccc2SC1C(=O)N1CCC(C(=O)N2CCN(c3ccccn3)CC2)CC1` (centres undefined) showed an RP-LC retention time of 596 s.

Compound `O=C(C1=NN(Cc2ccccc2)c2ccccc2S1(=O)=O)N1CCCCCC1` registered an RP-LC retention time of 974 s.

In the case of `Cn1c(=O)n([C@H]2CCCN(C(=O)Nc3ccc4c(c3)OCCO4)C2)c2ncccc21`, the RP-LC retention time was 684 s.

`Cc1cc(NC(=O)Cn2cnc3c(oc4ccccc43)c2=O)no1` had an RP-LC retention time of 668 s.

The compound `Cn1nnnc1C1CCCN(C(=O)C2CC2)C1` (centres undefined) gave an RP-LC retention time of 605 s.

Regarding `Cc1ccc(CNC(=O)Cc2c(C(=O)O)c(C)cn2C)o1`, the RP-LC retention time is 695 s.

On to `NC(=O)c1cc(-c2ccccc2)sc1NC(=O)c1cc(Cl)sc1Cl`, for which the RP-LC retention time stood at 1180 s.

On to `CCN(CC)S(=O)(=O)c1ccc2c(c1)N(CC(=O)NCCC(C)C)C(=O)C1CCCCN21` (centres undefined), for which the RP-LC retention time stood at 991 s.

Compound `O=C(NCc1noc(C2CCCC2)n1)c1ccc(F)cc1` gave an RP-LC retention time of 798 s.

The compound `COc1ccc(CNC(=O)C2CC(=O)N(c3n[nH]c4cccc(F)c34)C2)cc1OC` (centres undefined) showed an RP-LC retention time of 661 s.

In the case of `CNC(=O)CC1CCOC2(CCN(C(=O)C3CC3)CC2)C1` (centres undefined), the RP-LC retention time was determined as 580 s.

`Cc1ccc(S(=O)(=O)N2C(=O)CCC2C(=O)N(C)C2CCCCC2)cc1C` (centres undefined) gave an RP-LC retention time of 1010 s.

Turning to `O=C(NCCCn1c(C(F)(F)F)nc2cccnc21)Nc1ccccc1`, the RP-LC retention time was determined as 776 s.

In turn, `CC(C)CCNC(=O)C1CCCN(c2nnc3ccc(C(F)(F)F)cn23)C1` (centres undefined) returned an RP-LC retention time of 829 s.

`CCCNC(=O)N1CCN(c2nc3c(s2)CN(C(=O)CC)CC3)CC1` displayed an RP-LC retention time of 602 s.

Regarding `CN1CCC(N2CCN(C(=O)CCC3CCCN(c4cc(NC5CC5)ncn4)C3)CC2)CC1` (centres undefined), the RP-LC retention time was 534 s.

As for `Cc1ccc(S(=O)(=O)NCCC(=O)O)cc1C`, the RP-LC retention time was 639 s.

Compound `O=C(Nc1ccc(OCc2nnc(-c3ccccc3)o2)cc1)c1cccnc1` displayed an RP-LC retention time of 743 s.

For `Cc1ccc2oc(=O)n(Cc3noc(C(=O)NCc4ccc(Br)cc4)n3)c2c1`, the RP-LC retention time was 952 s.

For the compound `Cn1c(CN2CCN(C(=O)c3ccc(C#N)cc3)CC2)nc2cc(C(=O)N3CCCC3)ccc21`, the RP-LC retention time came to 604 s.

`O=C(NC1CC1)[C@@H]1C[C@H](Oc2ccccc2)CN1C(=O)c1n[nH]c(=O)c2ccccc12`: the RP-LC retention time amounted to 685 s.

The compound `CC1CCN(C(=O)c2cc(S(=O)(=O)N(C)CC(=O)NC3CC3)cn2C)CC1` registered an RP-LC retention time of 693 s.

In turn, `O=C(CCS(=O)(=O)c1ccccc1)Nc1cc(-c2ccco2)nn1CCO` gave an RP-LC retention time of 643 s.

Turning to `CCOC(=O)c1nc(N(CC)c2ccccc2)c2ccccc2n1`, the RP-LC retention time was determined as 769 s.

On to `O=C(Cn1c(=O)n(-c2ccc(F)cc2)c2ncccc21)NCCN1CCCCCC1`, for which the RP-LC retention time amounted to 625 s.

Compound `COCCc1noc([C@@H]2CN(Cc3cccc4[nH]ccc34)C[C@H]2CO)n1` displayed an RP-LC retention time of 554 s.

`CC(=O)Nc1ccc(OCC(=O)NCc2ccc(N3CCOCC3)cc2)nc1` registered an RP-LC retention time of 604 s.

As to `CC(=O)N1CCC(C(=O)NCc2c(-c3ccccc3)nc3sc(C)nn23)CC1`, the RP-LC retention time amounted to 729 s.

In the case of `C=C(C)CN1CC[C@]23c4c5ccc(O)c4O[C@H]2c2[nH]c4ccccc4c2C[C@@]3(O)[C@H]1C5`, the RP-LC retention time was 647 s.

For the compound `Cc1c(-c2noc(-c3ccc4c(c3)OCO4)n2)nnn1Cc1ccc(F)cc1`, the RP-LC retention time stood at 999 s.

On to `Cc1csc(-c2ccc(N3CCN(C(=O)c4ccc5c(c4)OCO5)CC3)nc2)n1`, for which the RP-LC retention time is 791 s.

In turn, `COC(=O)C1C(=O)C2=C(CC1C)NC(=O)CC2c1cccc(Cl)c1` (centres undefined) gave an RP-LC retention time of 773 s.

For `Cc1nn(-c2ccc(C(=O)N3CCN(C)CC3)cc2)c2c1C(=O)CC(C)(C)C2`, the RP-LC retention time turned out to be 593 s.

Compound `Cn1c(=O)sc2cc(S(=O)(=O)N3CCC(C(=O)NC4CCCCCCC4)CC3)ccc21` returned an RP-LC retention time of 931 s.

`COC(=O)c1cnc2nc(C)ccc2c1Nc1cccc(Br)c1`: the RP-LC retention time was 718 s.

`CCN1CCCC1CNC(=O)C1c2ccccc2C(=O)N(CCOC)C1c1cccs1` (centres undefined) showed an RP-LC retention time of 556 s.

Turning to `COc1ccc(CN2C(=O)CC(c3ccc(OC)cc3)CC2=O)cc1`, the RP-LC retention time is 965 s.

The compound `CCCC(=O)NCCc1c2n(c3ccc(OC)cc13)CCCc1ccccc1-2` gave an RP-LC retention time of 1150 s.

`Cc1ccc(C)c(N2CCN(c3cc(C(=O)O)c4cc(NS(C)(=O)=O)ccc4n3)CC2)c1` gave an RP-LC retention time of 1110 s.

`Cn1cnc(S(=O)(=O)NCCc2noc(-c3ccncc3)n2)c1` returned an RP-LC retention time of 596 s.

Compound `CCN(CC)C(=O)Cn1ccc2ccc(-c3nnc(C)o3)cc21` gave an RP-LC retention time of 718 s.

For the compound `Cn1nc(C(=O)N2CCCCC2)c2c1CCN(C(=O)CCC(=O)NC1CCCCC1)C2`, the RP-LC retention time worked out at 681 s.

In the case of `O=C(NCCn1nc(-c2cccs2)ccc1=O)c1ccc(=O)n(Cc2ccccc2)n1`, the RP-LC retention time was 678 s.
